According to ChEMBL document CHEMBL5360530, “Structure activity relationship (SAR) and anticancer activity of pyrrolidine derivatives: Recent developments and future prospects (A review)” (Eur J Med Chem, 2023):

Key:
MCF7 [1] = assay: Anticancer activity against human MCF7 cells assessed as cell growth inhibition measured after 48 hrs by MTT assay; type: functional, cell-based; details: MCF7, 48 h
A549 [2] = assay: Anticancer activity against human A549 cells assessed as cell growth inhibition measured after 48 hrs by MTT assay; type: functional, cell-based; details: A549, 48 h
HCT-116 = assay: Anticancer activity against human HCT-116 cells assessed as cell growth inhibition measured after 48 hrs by MTT assay; type: functional, cell-based; details: HCT-116, 48 h
HepG2 [3] = assay: Anticancer activity against human HepG2 cells assessed as cell growth inhibition measured after 48 hrs by MTT assay; type: functional, cell-based; details: HepG2, 48 h
PC-3 = assay: Anticancer activity against human PC-3 cells assessed as cell growth inhibition measured after 48 hrs by MTT assay; type: functional, cell-based; details: PC-3, 48 h
MCF7 [4] = assay: Anticancer activity against human MCF7 cells assessed as cell growth inhibition at 100 uM by MTT assay relative to control; type: functional
A549 [5] = assay: Anticancer activity against human A549 cells assessed as cell growth inhibition at 100 uM by MTT assay relative to control; type: functional
HepG2 [6] = assay: Anticancer activity against human HepG2 cells assessed as cell growth inhibition at 100 uM by MTT assay relative to control; type: functional
A-431 = assay: Anticancer activity against human A-431 cells assessed as cell growth inhibition at 100 uM by MTT assay relative to control; type: functional
FaDu = assay: Anticancer activity against human FaDu cells assessed as cell growth inhibition measured after 48 hrs; type: functional, cell-based

Work on `NC(=O)[C@H]1CCCN1CC(=O)Nc1cc2ccccc2oc1=O` yielded an IC50 (MCF7 [1]) of 0.355 µM and an IC50 (A549 [2]) of 0.024 µM.
`O=C(/C=C/c1ccco1)[C@H]1[C@H](c2ccco2)[C@H]2CSCN2[C@]12C(=O)Nc1ccccc12` gave an IC50 (HCT-116) of 1570 nM, an IC50 (HepG2 [3]) of no less than 1500 nM and an IC50 (PC-3) of no less than 800 nM.
With `CCCCCC/C=C\CCCCCCCC(=O)N1CCC[C@@H]1OP(=O)([O-])OCC[N+](C)(C)C` the inhibition at 100 µM (MCF7 [4]) was 22.6%, the inhibition at 100 µM (A549 [5]) was 4.7% and the inhibition at 100 µM (HepG2 [6]) was 10.1%. It also gave an inhibition at 100 µM (A-431) of 0.3%.
`O=C1Nc2ccccc2C12N[C@H](Cc1ccccc1)[C@@H](c1ccccc1Cl)[C@@]21CN(/C=C/c2ccccc2)C/C(=C\c2ccccc2Cl)C1=O` (some centres not stated) gave an IC50 (FaDu; Homo sapiens, FaDu, 48 h) of no less than 19 µM.
With `Cc1cc(=O)oc2cc(NC(=O)[C@@H]3CCCN3S(=O)(=O)c3ccccc3)ccc12` the IC50 (MCF7 [1]) was 2.58 µM and the IC50 (A549 [2]) was 18.1 µM.
In the case of `O=C(/C=C/c1c(Cl)cccc1Cl)[C@H]1[C@H](c2c(Cl)cccc2Cl)[C@H]2CSCN2[C@]12C(=O)Nc1ccccc12`, the IC50 (HCT-116) is reported as 1570 nM, the IC50 (HepG2 [3]) is reported as no less than 1500 nM and the IC50 (PC-3) is reported as no less than 800 nM.
`O=C1Nc2ccccc2C12N[C@H](Cc1ccccc1)[C@@H](c1ccccc1)[C@@]21CN(/C=C/c2ccccc2)C/C(=C\c2ccccc2)C1=O` (some centres not stated) was tested, and the IC50 (FaDu; Homo sapiens, FaDu, 48 h) was 19 µM.
In the case of `CCCCCC/C=C\CCCCCCCC(=O)N1CC[C@@H](OP(=O)([O-])OCC[N+](C)(C)C)C1`, the inhibition at 100 µM (MCF7 [4]) is reported as 22.6%, the inhibition at 100 µM (A549 [5]) is reported as 4.7% and the inhibition at 100 µM (HepG2 [6]) is reported as 10.1%. For the same molecule, the inhibition at 100 µM (A-431) was 0.3%.
For `O=C(/C=C/c1cccc(Br)c1)[C@H]1[C@H](c2cccc(Br)c2)[C@H]2CSCN2[C@]12C(=O)Nc1ccccc12`, the IC50 (HCT-116) was 1570 nM, the IC50 (HepG2 [3]) was no less than 1500 nM and the IC50 (PC-3) was no less than 800 nM.
`Cc1cc(=O)oc2cc(NC(=O)CN3CCC[C@@H]3C#N)ccc12` showed an IC50 (MCF7 [1]) of 4.43 µM and an IC50 (A549 [2]) of 4.02 µM.
With `O=C1Nc2ccccc2C12N[C@H](Cc1ccccc1)[C@@H](c1ccccc1Br)[C@@]21CN(/C=C/c2ccccc2)C/C(=C\c2ccccc2Br)C1=O` (some centres not stated) the IC50 (FaDu; Homo sapiens, FaDu, 48 h) was no less than 19 µM.
Work on `Cc1cc(=O)oc2cc(NC(=O)CN3CCCC3)ccc12` yielded an IC50 (MCF7 [1]) of 4.8 µM and an IC50 (A549 [2]) of 4.38 µM.
For `O=C1Nc2ccccc2C12N[C@H](Cc1ccccc1)[C@@H](c1cccc([N+](=O)[O-])c1)[C@@]21CN(/C=C/c2ccccc2)C/C(=C\c2cccc([N+](=O)[O-])c2)C1=O` (some centres not stated), the IC50 (FaDu; Homo sapiens, FaDu, 48 h) was no less than 19 µM.
`O=C(Nc1cc2ccccc2oc1=O)[C@@H]1CCCN1S(=O)(=O)c1ccccc1` gave an IC50 (MCF7 [1]) of 9.34 µM and an IC50 (A549 [2]) of 7.39 µM.
`COc1cccc(/C=C2\CN(/C=C/c3ccccc3)C[C@]3(C2=O)[C@H](c2cccc(OC)c2)[C@@H](Cc2ccccc2)NC32C(=O)Nc3ccccc32)c1` (some centres not stated) gave an IC50 (FaDu; Homo sapiens, FaDu, 48 h) of no less than 19 µM.
Molecule `CCCCCCCCCCCCCCCC(=O)N1CCC[C@@H]1OP(=O)([O-])OCC[N+](C)(C)C` has an inhibition at 100 µM (MCF7 [4]) of 22.6%, an inhibition at 100 µM (A549 [5]) of 4.7% and an inhibition at 100 µM (HepG2 [6]) of 10.1%. It also gave an inhibition at 100 µM (A-431) of 0.3%.
`O=C(N[C@H]1C[C@@H](C(=O)NO)N(S(=O)(=O)c2ccc(Oc3ccccc3)cc2)C1)c1cccnc1` gave an IC50 (A549 [2]) of 5 µM.
With `O=C1Nc2ccccc2C12N[C@H](Cc1ccccc1)[C@@H](c1ccc(Cl)cc1)[C@@]21CN(/C=C/c2ccccc2)C/C(=C\c2ccc(Cl)cc2)C1=O` (some centres not stated) the IC50 (FaDu; Homo sapiens, FaDu, 48 h) was no less than 19 µM.
Work on `Cc1ccccc1/C=C1\CN(/C=C/c2ccccc2)C[C@]2(C1=O)[C@H](c1ccccc1C)[C@@H](Cc1ccccc1)NC21C(=O)Nc2ccccc21` (some centres not stated) yielded an IC50 (FaDu; Homo sapiens, FaDu, 48 h) of 23.5 µM.
`CCCCCCCC/C=C\CC(=O)N1CC[C@@H](COP(=O)([O-])OCC[N+](C)(C)C)C1` gave an inhibition at 100 µM (MCF7 [4]) of 92.9%, an inhibition at 100 µM (A549 [5]) of 58.7% and an inhibition at 100 µM (HepG2 [6]) of 72.8%. The inhibition at 100 µM (A-431) was 67.3%.
Work on `CCOC(=O)[C@H]1CCCN1CC(=O)Nc1cc2ccccc2oc1=O` yielded an IC50 (MCF7 [1]) of 9.27 µM and an IC50 (A549 [2]) of 3.09 µM.
`O=C(N[C@H]1C[C@@H](C(=O)NO)N(S(=O)(=O)c2ccc(Oc3ccccc3)cc2)C1)c1cc(Br)cnc1Cl` showed an IC50 (A549 [2]) of 5 µM.
For `O=C(/C=C/c1ccc(Br)cc1)[C@H]1[C@H](c2ccc(Br)cc2)[C@H]2CSCN2[C@]12C(=O)Nc1ccccc12`, the IC50 (HCT-116) was 3000 nM, the IC50 (HepG2 [3]) was 800 nM and the IC50 (PC-3) was no less than 800 nM.
`O=C(Nc1cc2ccccc2oc1=O)[C@@H]1CCCN1S(=O)(=O)c1ccc(Cl)cc1` was tested, and the IC50 (MCF7 [1]) was 4.39 µM and the IC50 (A549 [2]) was 3.81 µM.
In the case of `CCCCCCCCCCCCCCCC(=O)N1CCC[C@H]1OP(=O)([O-])OCC[N+](C)(C)C`, the inhibition at 100 µM (MCF7 [4]) is reported as 22.6%, the inhibition at 100 µM (A549 [5]) is reported as 71.6% and the inhibition at 100 µM (HepG2 [6]) is reported as 10.1%. For the same molecule, the inhibition at 100 µM (A-431) was 0.3%.
`COc1ccc(/C=C2\CN(/C=C/c3ccccc3)C[C@]3(C2=O)[C@H](c2ccc(OC)cc2)[C@@H](Cc2ccccc2)NC32C(=O)Nc3ccccc32)cc1` (some centres not stated) was tested, and the IC50 (FaDu; Homo sapiens, FaDu, 48 h) was no less than 19 µM.
In the case of BLEOMYCIN, the IC50 (FaDu; fadu) is reported as 31 µM.
